Source: PubChem BioAssay (NCI)
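Compound exposure: 48 hours, 5 concentrations, 96-well plates. TGI marks complete inhibition of growth.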

What was measured:
Assay in all cases: NCI-60 cell line screen, 48 h
IGROV1 ovarian = tested on: IGROV1 ovarian
SR leukemia = tested on: SR leukemia
SNB-19 CNS = tested on: SNB-19 CNS
OVCAR-3 ovarian = tested on: OVCAR-3 ovarian
COLO 205 colon = tested on: COLO 205 colon
SNB-78 CNS = tested on: SNB-78 CNS
HS 578T breast = tested on: HS 578T breast
LOX IMVI melanoma = tested on: LOX IMVI melanoma
BT-549 breast = tested on: BT-549 breast
SK-OV-3 ovarian = tested on: SK-OV-3 ovarian
TK-10 renal = tested on: TK-10 renal
T-47D breast = tested on: T-47D breast
NCI/ADR-RES ovarian = tested on: NCI/ADR-RES ovarian
HL-60(TB) leukemia = tested on: HL-60(TB) leukemia
UACC-62 melanoma = tested on: UACC-62 melanoma
EKVX NSCLC = tested on: EKVX NSCLC
SK-MEL-5 melanoma = tested on: SK-MEL-5 melanoma
A549 NSCLC = tested on: A549 NSCLC
PC-3 prostate = tested on: PC-3 prostate
RXF-631 renal = tested on: RXF-631 renal
OVCAR-8 ovarian = tested on: OVCAR-8 ovarian
HCT-15 colon = tested on: HCT-15 colon
SK-MEL-28 melanoma = tested on: SK-MEL-28 melanoma
CAKI-1 renal = tested on: CAKI-1 renal
M14 melanoma = tested on: M14 melanoma
SF-268 CNS = tested on: SF-268 CNS
SNB-75 CNS = tested on: SNB-75 CNS
HCC-2998 colon = tested on: HCC-2998 colon
CCRF-CEM leukemia = tested on: CCRF-CEM leukemia
MCF7 breast = tested on: MCF7 breast
M19-MEL melanoma = tested on: M19-MEL melanoma
KM20L2 colon = tested on: KM20L2 colon
SF-295 CNS = tested on: SF-295 CNS
RXF 393 renal = tested on: RXF 393 renal
DLD-1 colon = tested on: DLD-1 colon
MOLT-4 leukemia = tested on: MOLT-4 leukemia
A498 renal = tested on: A498 renal
DU-145 prostate = tested on: DU-145 prostate
MDA-N = tested on: MDA-N
NCI-H23 lung = tested on: NCI-H23 lung
U251 CNS = tested on: U251 CNS
NCI-H226 lung = tested on: NCI-H226 lung
OVCAR-4 ovarian = tested on: OVCAR-4 ovarian
KM12 colon = tested on: KM12 colon
OVCAR-5 ovarian = tested on: OVCAR-5 ovarian
UACC-257 melanoma = tested on: UACC-257 melanoma
SN12C renal = tested on: SN12C renal
SK-MEL-2 melanoma = tested on: SK-MEL-2 melanoma
HCT-116 colon = tested on: HCT-116 colon
MDA-MB-435 = tested on: MDA-MB-435
MALME-3M melanoma = tested on: MALME-3M melanoma
K-562 leukemia = tested on: K-562 leukemia
HT29 colon = tested on: HT29 colon
HOP-62 NSCLC = tested on: HOP-62 NSCLC
DMS 273 small cell lung = tested on: DMS 273 small cell lung
MDA-MB-231 breast = tested on: MDA-MB-231 breast
SW-620 colon = tested on: SW-620 colon
XF 498 CNS = tested on: XF 498 CNS
NCI-H460 lung = tested on: NCI-H460 lung
RPMI-8226 leukemia = tested on: RPMI-8226 leukemia
SF-539 CNS = tested on: SF-539 CNS
HOP-92 NSCLC = tested on: HOP-92 NSCLC
UO-31 renal = tested on: UO-31 renal
ACHN renal = tested on: ACHN renal
NCI-H522 lung = tested on: NCI-H522 lung
786-0 renal = tested on: 786-0 renal
LXFL 529 NSCLC = tested on: LXFL 529 NSCLC
HOP-18 NSCLC = tested on: HOP-18 NSCLC

COc1ccc(-c2oc3cc(O)c(OC)c(O)c3c(=O)c2O)cc1 showed a TGI (IGROV1 ovarian) greater than 100 µM, a TGI (SR leukemia) of 20.8 µM and a TGI (SNB-19 CNS) greater than 100 µM. For the same molecule, the TGI (OVCAR-3 ovarian) was greater than 100 µM, the TGI (COLO 205 colon) was greater than 80.6 µM and the TGI (SNB-78 CNS) was greater than 100 µM. For the same molecule, the TGI (HS 578T breast) was greater than 92.7 µM, the TGI (LOX IMVI melanoma) was greater than 78.6 µM and the TGI (BT-549 breast) was 72.8 µM. It also gave a TGI (SK-OV-3 ovarian) of 42.8 µM, a TGI (TK-10 renal) greater than 100 µM and a TGI (T-47D breast) greater than 100 µM. The TGI (NCI/ADR-RES ovarian) was 48.5 µM, the TGI (HL-60(TB) leukemia) was 9.19 µM and the TGI (UACC-62 melanoma) was greater than 87.8 µM. It also gave a TGI (EKVX NSCLC) greater than 100 µM, a TGI (SK-MEL-5 melanoma) of 34 µM and a TGI (A549 NSCLC) of 18 µM. The TGI (PC-3 prostate) was greater than 100 µM, the TGI (RXF-631 renal) was greater than 100 µM and the TGI (OVCAR-8 ovarian) was greater than 75.3 µM. The TGI (HCT-15 colon) was 52.2 µM, the TGI (SK-MEL-28 melanoma) was greater than 100 µM and the TGI (CAKI-1 renal) was 65.3 µM. It also gave a TGI (M14 melanoma) greater than 100 µM, a TGI (SF-268 CNS) greater than 77.1 µM and a TGI (SNB-75 CNS) of 63.2 µM. For the same molecule, the TGI (HCC-2998 colon) was greater than 60.2 µM, the TGI (CCRF-CEM leukemia) was 14.8 µM and the TGI (MCF7 breast) was 63.7 µM. The TGI (M19-MEL melanoma) was greater than 100 µM, the TGI (KM20L2 colon) was greater than 100 µM and the TGI (SF-295 CNS) was 53.6 µM. It also gave a TGI (RXF 393 renal) of 50.2 µM, a TGI (DLD-1 colon) of 30.8 µM and a TGI (MOLT-4 leukemia) of 12.9 µM. For the same molecule, the TGI (A498 renal) was 22.3 µM, the TGI (DU-145 prostate) was greater than 24.9 µM and the TGI (MDA-N) was greater than 100 µM. For the same molecule, the TGI (NCI-H23 lung) was greater than 100 µM, the TGI (U251 CNS) was 30.2 µM and the TGI (NCI-H226 lung) was 24.4 µM. It also gave a TGI (OVCAR-4 ovarian) greater than 100 µM, a TGI (KM12 colon) greater than 100 µM and a TGI (OVCAR-5 ovarian) greater than 70.1 µM. The TGI (UACC-257 melanoma) was greater than 100 µM, the TGI (SN12C renal) was greater than 75.2 µM and the TGI (SK-MEL-2 melanoma) was greater than 100 µM. For the same molecule, the TGI (HCT-116 colon) was greater than 66.6 µM, the TGI (MDA-MB-435) was greater than 100 µM and the TGI (MALME-3M melanoma) was 88.2 µM. The TGI (K-562 leukemia) was greater than 53.5 µM, the TGI (HT29 colon) was greater than 100 µM and the TGI (HOP-62 NSCLC) was 25.7 µM. The TGI (DMS 273 small cell lung) was 30 µM, the TGI (MDA-MB-231 breast) was greater than 100 µM and the TGI (SW-620 colon) was greater than 70.1 µM. For the same molecule, the TGI (XF 498 CNS) was greater than 100 µM, the TGI (NCI-H460 lung) was 26.4 µM and the TGI (RPMI-8226 leukemia) was 31.5 µM. The TGI (SF-539 CNS) was 41.6 µM, the TGI (HOP-92 NSCLC) was greater than 72.3 µM and the TGI (UO-31 renal) was greater than 61.3 µM. The TGI (ACHN renal) was 10.7 µM, the TGI (NCI-H522 lung) was 57.8 µM and the TGI (786-0 renal) was 33.1 µM. For the same molecule, the TGI (LXFL 529 NSCLC) was greater than 100 µM and the TGI (HOP-18 NSCLC) was greater than 100 µM.
